Experimental data reported in patent US20050171036A1, “Use of antitumor indolopyrrolocarbazole derivative and other anticancer agent in combination” (priority 2002, published 2005).

Tests used:
Type in all cases: in vivo
[1] = tested on: P388 mouse leukemia cells; assay: Survival of mice with intraperitoneal P388 leukemia, combined use (Example 2); conditions: CDF1 mice, P388 i.p., single i.p. dose day 1, Compound A 75, CDDP 1.67, ADM 1.5, VP-16 7.5 mg/kg; for Number of days survived (average ± standard deviation): complete remission counted as 60 days; for Increased life span (ILS %): versus control
Procedure: P388 mouse leukemia cells (1×10^6 cells) were transplanted intraperitoneally per mouse (day 0). One drug or two drugs were intraperitoneally administered on the next day (day 1). […] The ratio of increased life span (ILS %) was determined according to the following equation: ILS %=((the number of survived days for the group treated with drug)/(the number of survived days for the control group without drug)−1)×100
The combination index (CI) showing combination effect was determined by the following equation in accordance with the method by Uchida et al. (Uchida et al., Gan to Kagaku Ryouhou (Cancer and Chemotherapy), 25, 75-78 (1998)) based on the ILS % obtained from the treatment using one drug and the ILS % obtained from the combined treatment. CI=ILS % of the combined treatment/(ILS % with J-107088 (Compound A) alone+ILS % with another drug)
CI>1: synergistic effect, CI=1: additive effect, CI<1: antagonistic effect

[2] = Toxicity of equivalent-ILS doses given intraperitoneally for 5 consecutive days (Example 4); conditions: ADM 1.5 mg/kg alone, Compound A 5 + ADM 0.3 mg/kg
Procedure: This dose was intraperitoneally administered to mice once a day for consecutive 5 days. Thereafter, whether the animal was alive or dead was observed, and the effect of lowering toxicity was judged. As the toxicity index, the changes in the body weight between that before the administration and that on the subsequent day after the administration were recorded.

[3] = tested on: P388 mouse leukemia cells; assay: Survival of mice with intraperitoneal P388 leukemia, equivalent-ILS doses (Example 4); conditions: CDF1 mice, P388 i.p.; single i.p. dose day 1; Compound A 25 mg/kg alone, ADM 1.5 mg/kg alone, Compound A 5 + ADM 0.3 mg/kg
Procedure: P388 mouse leukemia cells (1×10^6 cells) were transplanted intraperitoneally per mouse (day 0). One drug or two drugs were intraperitoneally administered on the next day (day 1). […] The ratio of increased life span (ILS %) was determined in the same manner as in Example 2.

Compound	Number of days survived (average ± standard deviation) [1] [days]	Increased life span (ILS %) [1] [%]	Change in body weight (g) ([2]; before administration versus day after administration, i.p. once a day for 5 days)	Number of dead animals/number of animals per group ([2]; i.p. once a day for 5 consecutive days, Compound A 25 mg/kg alone)	Ratio of increased life span (ILS %) [3] [%]
[NH2][Pt]([NH2])([Cl])[Cl] [CDDP, cisplatin]	25.4 ± 19.6	121			
COc1cc([C@@H]2c3cc4c(cc3[C@@H](O[C@@H]3O[C@@H]5CO[C@@H](C)O[C@H]5[C@H](O)[C@H]3O)[C@H]3COC(=O)[C@H]23)OCO4)cc(OC)c1O [VP-16, etoposide]	17.4 ± 4.1	51			
COc1cccc2c1C(=O)c1c(O)c3c(c(O)c1C2=O)C[C@@](O)(C(=O)CO)C[C@@H]3O[C@H]1C[C@H](N)[C@H](O)[C@H](C)O1 [ADM, adriamycin (doxorubicin)]	19.0 ± 1.9	65	+0.1 g	0/4	92
